The values that follow come from patent US20120255051A1, “HERBICIDE TOLERANT PLANTS” (priority 2009, published 2012).

This assay deals with Brassica plants comprising mutant AHAS alleles. Put plainly: Greenhouse post-emergence spraying (10 g a.i./ha): vigor scores. The assay is classed as in vivo, Brassica napus. As to conditions: for vigor score Av, post-emergence (1, 2 and 3 weeks after treatment): 10 g a.i./ha. The method, then:
In another experiment, the effect of combining AHAS full knockouts with AHAS missense herbicide tolerant alleles on tolerance to thiencarbazone-methyl pre-planting application and thiencarbazone-methyl post-emergence spraying was tested in the greenhouse. To this end, the Brassica plants identified in Example 1 and 2 were backcrossed two times with an elite parent line, and subsequently selfed twice to obtain homozygous plants (BC2S2). Treatment pre-planting was carried out on the soil just after sowing with a dose of 20 g a.i./ha of thiencarbazone methyl. For assessment of vigor scores, plants were evaluated on a scale of 1 to 9, where 1=dead, 3=poor, 6=some aberrant phenotype and 9=vigorous. The vigor scores are an average of the scores taken at 2, 3 and 4 weeks after treatment. Treatment post-emergence at the first leaf stage was carried out with a dose of 10 g a.i./ha of thiencarbazone-methyl. The vigor scores are an average of the scores taken 1, 2 and 3 weeks after the treatment. The average values (Av) and standard deviations (SD) of the vigor scores are represented in Table 6.

As for `COC(=O)c1csc(C)c1S(=O)(=O)NC(=O)n1nc(OC)n(C)c1=O` [thiencarbazone-methyl, methyl 4-[(4,5-dihydro-3-methoxy-4-methyl-5-oxo-1H-1,2,4-triazol-1-yl)carbonylsulfamoyl]-5-methylthiophene-3-carboxylate], the “vigor score Av, post-emergence (1, 2 and 3 weeks after treatment)” value (“vigor score Av, post-emergence” for short) is, setting by setting: (AHAS1 +/+, AHAS3 +/+ (HETO108+HETO104 series)) 1.7; (AHAS1 +/+, AHAS3 +/+ (HETO108+HETO111 series)) 1.7; (AHAS1 +/+, AHAS3 +/+ (HETO112+HETO111 series)) 1.7; (AHAS1 +/+, AHAS3 HETO104/HETO104) 1.8; (AHAS1 +/+, AHAS3 HETO111/HETO111 (HETO108+HETO111 series)) 3.3; (AHAS1 +/+, AHAS3 HETO111/HETO111 (HETO112+HETO111 series)) 3.1. The “vigor score Av, post-emergence” value by setting is: (AHAS1 HETO108/HETO108, AHAS3 +/+ (HETO108+HETO104 series)) 3.4; (AHAS1 HETO108/HETO108, AHAS3 +/+ (HETO108+HETO111 series)) 3.3; (AHAS1 HETO108/HETO108, AHAS3 HETO104/HETO104) 3.8; (AHAS1 HETO108/HETO108, AHAS3 HETO111/HETO111) 4.7; (AHAS1 HETO112/HETO112, AHAS3 +/+) 1.7; (AHAS1 HETO112/HETO112, AHAS3 HETO111/HETO111) 3.6. For the setting “Elite parent line treated”, the “vigor score Av, post-emergence” value is reported as 1.8. In addition, for the setting “post-emergence spraying, greenhouse”, the “thiencarbazone-methyl tolerance of plants homozygous for a missense allele and a full knock-out allele, versus missense allele with other AHAS gene homozygous wild-type” value is “higher”.
